Series [1] can be described thus: Solubility in water of chitosan oligosaccharides (Table 1). Format: physicochemical.
A short description of series [2]: CH3OH solubility of chitosan oligosaccharides (Table 1). In kind it is physicochemical. The note with it: methanol, organic solvent or mixture.
Setting [3] is: in water, read-out: Solubility (% in water).
Where [4] appears, read: CH3OH, 20° C., read-out: CH3OH Solubility.

The term solubility denotes how much of the substance goes into solution per volume.

Counter-ions that a name gives are not always drawn.

With `N[C@H]1[C@H](O[C@H]2[C@H](O)[C@@H](N)C(O)O[C@@H]2CO)O[C@H](CO)[C@@H](O)[C@@H]1O` (stereo partly drawn) [Chitobiose HCl], the solubility amounted to 1900 mg/mL in series [1] (setting [3]) and 54 mg/mL in series [2] (setting [4]).
On to `N[C@H]1[C@H](O[C@H]2[C@H](O)[C@@H](N)[C@H](O[C@H]3[C@H](O)[C@@H](N)[C@H](O[C@H]4[C@H](O)[C@@H](N)[C@H](O[C@H]5[C@H](O)[C@@H](N)[C@H](O[C@H]6[C@H](O)[C@@H](N)C(O)O[C@@H]6CO)O[C@@H]5CO)O[C@@H]4CO)O[C@@H]3CO)O[C@@H]2CO)O[C@H](CO)[C@@H](O)[C@@H]1O` (stereo partly drawn) [Chitohexose HCl], for which the solubility in series [1] (setting [3]) was 680 mg/mL; in series [2] (setting [4]), 17 mg/mL.
Taken in the same sequence, the figures for `N[C@H]1[C@H](O[C@H]2[C@H](O)[C@@H](N)[C@H](O[C@H]3[C@H](O)[C@@H](N)[C@H](O[C@H]4[C@H](O)[C@@H](N)[C@H](O[C@H]5[C@H](O)[C@@H](N)C(O)O[C@@H]5CO)O[C@@H]4CO)O[C@@H]3CO)O[C@@H]2CO)O[C@H](CO)[C@@H](O)[C@@H]1O` (stereo partly drawn) [Chitopentose HCl] were 860 mg/mL and 46 mg/mL.
For `N[C@H]1[C@H](O[C@H]2[C@H](O)[C@@H](N)[C@H](O[C@H]3[C@H](O)[C@@H](N)[C@H](O[C@H]4[C@H](O)[C@@H](N)C(O)O[C@@H]4CO)O[C@@H]3CO)O[C@@H]2CO)O[C@H](CO)[C@@H](O)[C@@H]1O` (stereo partly drawn) [Chitotetrose HCl], the values for the solubility in series [1] (setting [3]) and in series [2] (setting [4]) were 1580 mg/mL and 450 mg/mL, respectively.
Taken in the same sequence, the figures for `N[C@H]1[C@H](O[C@H]2[C@H](O)[C@@H](N)[C@H](O[C@H]3[C@H](O)[C@@H](N)C(O)O[C@@H]3CO)O[C@@H]2CO)O[C@H](CO)[C@@H](O)[C@@H]1O` (stereo partly drawn) [Chitotriose HCl] were 1770 mg/mL and 370 mg/mL.
As to `Cl.N[C@H]1C(O)O[C@H](CO)[C@@H](O)[C@@H]1O` (stereo partly drawn) [D-Glucosamine HCl], the solubility in series [1] (water) was 371 mg/mL; in series [2], 4 mg/mL.
